# According to patent US8486991B2, “Enantiomerically pure phosphoindoles as HIV inhibitors” (Idenix Pharmaceuticals, Inc., priority 2006, dated 2013):
# Where “and” joins values, the source holds several entries; their conditions need not be identical. Identical values can stand only once. Entries after “also recorded” stand apart in the source; their conditions may differ. Like-named read-outs stand apart in the source and are kept apart here.
# Columns and labels:
# [1] = Cellular cytotoxicity, 4 days, MTS, MOLT-4; type: cell-based; conditions: human, MOLT-4 cells (T lymphoblastic leukemia cell line), Table 21, read-out: Average CC50 Values ± Standard Deviation, MOLT-4
# Procedure: (§2) Cell viability was measured by standard MTT or MTS staining.
# (§3) Following drug exposure for 4 days, cell viability was measured by MTS staining and CC50 values were determined. Drug concentrations ranged from 0.005 μM to 100 μM.
# HIV-1 W.T. (BH10) virus = test: PBMC cell assay, W.T. (BH10); type: cell-based; conditions: Human immunodeficiency virus 1, PBMC
# [2] = Cellular cytotoxicity, 4 days, MTS, IM9; type: cell-based; conditions: human, IM9 cells (B lymphoblastic cell line), Table 21, read-out: Average CC50 Values ± Standard Deviation, IM9
# Procedure: as §2, §3
# [3] = test system: 9 different HIV-1 subtypes (A, B, C, D, F1, G, H, AE, AG), 18 viruses; test: PhenoSense testing, HIV-1 subtype panel; type: cell-based; conditions: Human immunodeficiency virus 1, read-out: potency range, panel of 9 different HIV-1 subtypes
# Description: The activities of the test and control compounds were next tested against a subtype panel which covers all major HIV-1 subtypes or clades (A, B, C, D, F1, G, H, AE and AG). This panel was part of a 64 virus panel selected from the large library of clinical isolates Monogram BioSciences (formerly ViroLogics). Each of the subtypes in the panel was represented by 2 distinct viruses which share many sequence similarities, but also some key differences and therefore could respond differently to one or more of the drugs included in this study.
# [4] = test system: CYP3A4 (activation of PXR in DPX2 cells); test: CYP3A4 induction screen in DPX2 cells; type: cell-based, human; conditions: extent compared with rifampicine, mifepristone, androstanol
# [5] = In vivo pharmacokinetics, monkeys; set-up: species or system monkey; conditions: plasma; for Tmax: po; for bioavailability: Monkey, read-out: BA (absolute oral bioavailability)
# Procedure: All animals received a single oral or intravenous dose of compound in either polyethylene glycol 400 (PEG400) or a mixture of 10% ethanol (EtOH), 10% dimethylacetamine (DMA) and 80% PEG400 at the indicated dose level. Plasma concentration data were acquired using sensitive and specific LC-MS/MS methods. Pharmacokinetic data from the toxicity study included aspects of gender differences, variability and exposure.
# Blood samples (1.5-2.5 mL) were collected in heparinized tubes at 0 (pre-dose), 5 (IV only), 10, 20, 30 min, 1, 2, 4, 6, 8, 12 (PO only) and 24 hr after dosing. Plasma was separated and stored at −70° C. until analysis.
# Concentrations of unlabeled compound I and compound III within plasma samples and excreta from rat, dog and monkey PK studies were identified through high performance liquid chromatographic (HPLC) methods that incorporated tandem mass spectrometric detection (LC-MS/MS).
# The absolute oral bioavailability was determined in pharmacokinetic by comparison of AUC values of parent compound following single intravenous and oral doses of in rats (compound III only), dogs and monkeys.
# HIV-1 IIIB w.t. virus = test: microbe, parasite or virus in culture; type: cell-based; conditions: IIIB
# Procedure: (§1) The test articles were next profiled against a panel of HIV-1 IIIB laboratory cultivated mutants as summarized in the text below. Antiviral efficacy was determined via a CPE assay with an MTS read-out for cell viability.
# [6] = test system: HIV-1 IIIB K103R/V179D/P225H triple mutant virus; test: microbe, parasite or virus in culture; type: cell-based; conditions: for EC50: Human immunodeficiency virus 1, IIIB; for Fold Change, K103R/V179D/P225H: Table 16, IIIB
# Procedure: as §1
# CYP2C19 = CYP2C19 (Homo sapiens, UniProt P33261); test: Human liver microsomal CYP450 inhibition, CYP2C19
# Procedure: In addition, the type of inhibition was also evaluated.
# Enzyme kinetic studies of cytochrome P450 isozyme inhibition were conducted using human liver microsomes.
# [7] = test system: HIV-1 BH10 wild-type virus; test: microbe, parasite or virus in culture; type: cell-based
# [8] = test system: HIV-1 K103N clinical isolates 4937 and 5002; test: microbe, parasite or virus in culture; type: cell-based; conditions: Human immunodeficiency virus 1, PBMC, read-out: Average EC50 Values ± Standard Deviation, K103N
# [9] = Cytotoxicity in PBMC, 3 days, MTT; conditions: human, stimulated primary blood mononuclear cells (PBMC)
# Procedure: Cell viability was determined via MTT staining.
# [10] = Cellular cytotoxicity, 4 days, MTS, U937; type: cell-based; conditions: human, U-937 cells (monocytes derived from a histiocytic lymphoma), Table 21, read-out: Average CC50 Values ± Standard Deviation, U937
# Procedure: as §2, §3
# [11] = target: site-directed mutant HIV-1 RT enzymes; test: HIV-1 RT enzyme assay, whole panel (ranges); type: biochemical
# Description: In Vitro Antiviral Activity Against Additional Mutant HIV RT Enzymes
# The studies are summarized in the text that follows.
# [12] = Plasma protein binding by equilibrium dialysis, rat; type: in vitro ADME
# Procedure: The in vitro plasma protein binding of compound I and compound III in rat, dog, monkey and human plasma was determined by equilibrium dialysis. Protein binding was assessed by equilibrium dialysis using rat, dog, monkey and human plasma. Samples were assayed by HPLC with LC-MS/MS detection. Plasma protein binding was high (>99%) for all species and for both compounds.
# HIV-1 W.T. (NL4-3) virus = test: PBMC cell assay, W.T. (NL4-3); type: cell-based; conditions: Human immunodeficiency virus 1, NL43, PBMC
# Sequence of CYP2C19 (P33261 whole entry): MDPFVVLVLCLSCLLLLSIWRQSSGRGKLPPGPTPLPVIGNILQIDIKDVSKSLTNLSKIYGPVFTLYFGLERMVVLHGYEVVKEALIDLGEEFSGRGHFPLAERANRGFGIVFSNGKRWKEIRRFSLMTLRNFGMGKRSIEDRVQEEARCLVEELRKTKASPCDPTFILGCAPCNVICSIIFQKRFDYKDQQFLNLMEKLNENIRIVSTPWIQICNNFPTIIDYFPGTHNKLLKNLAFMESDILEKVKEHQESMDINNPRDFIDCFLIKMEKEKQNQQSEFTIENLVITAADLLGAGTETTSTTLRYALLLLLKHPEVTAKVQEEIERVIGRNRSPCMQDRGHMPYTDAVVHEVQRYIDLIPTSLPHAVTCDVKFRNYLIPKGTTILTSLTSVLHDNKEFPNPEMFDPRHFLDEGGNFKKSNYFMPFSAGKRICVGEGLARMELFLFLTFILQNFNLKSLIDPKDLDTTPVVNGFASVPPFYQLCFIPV
compound,measurement,setting,value
"CO[P@](=O)(c1cc(C)cc(/C=C/C#N)c1)c1c(C(N)=O)[nH]c2ccc(Cl)cc12 [Compound III, (2-Carbamoyl-5-chloro-1H-indol-3-yl)-[3-((E)-2-cyano-vinyl)-5-methyl-phenyl]-(R)-phosphinic acid methyl ester]",CC50 at 4 days,[1],14.8 ± 1 µM
same,EC50,"HIV-1 W.T. (BH10) virus; read-out: Average EC50 Values ± Standard Deviation, W.T. (BH10)",0.4 ± 0.1 nM
same,EC50,"HIV-1 W.T. (BH10) virus; read-out: mean EC50, BH-10 strain in human PBMC",0.4 nM
same,CC50 at 4 days,[2],50 ± 17.4 µM
same,EC50,[3],0.2 to 2.14 nM
same,"Induction, DPX2 (CYP3A4)",[4],moderate inducers; also recorded: Moderate (n = 2)
same,Tmax,"[5]; female, monkey, 5 mg/kg, 5 mg/kg PO-Fed, 3F, median",2 h
same,bioavailability,"[5]; female, 5 mg/kg PO-Fed, 3F (females)",76%
same,Tmax,"[5]; male, monkey, 5 mg/kg, 5 mg/kg PO-Fed, 3M, median",2 h
same,Tmax,"[5]; male, monkey, 5 mg/kg, 5 mg/kg PO-Fed, males (3M or 2M), mean",3 h
same,Tmax,"[5]; male, monkey, 20 mg/kg, 20 mg/kg PO-Fed, 2M, mean",2.5 h
same,bioavailability,"[5]; male, 5 mg/kg PO-Fed, 3M (males)",42%
same,bioavailability,"[5]; male, 20 mg/kg PO-Fed, 2M",61%
same,concentration at 24 h,"[5]; monkey, 5 mg/kg oral dose, read-out: plasma concentrations at 24 hours post-dose",12 ng/mL
same,EC50,"HIV-1 IIIB w.t. virus; Human immunodeficiency virus 1, MT4, Table 15, CPE, read-out: Average EC50 Values ± Standard Deviation, W.T.",0.5 ± 0.1 nM
same,"Fold Change, W.T.",HIV-1 IIIB w.t. virus; Table 16,1 fold
same,EC50,"[6]; MT4, read-out: Average EC50 Values ± Standard Deviation, K103R/V179D/P225H",25 ± 6 nM
same,EC50,"[6]; MT4, read-out: EC50, K103R/V179D/P225H triple mutant virus",21 to 25 nM
same,"Fold Change, K103R/V179D/P225H",[6],53.5±12.8 fold
same,"Fold Change, K103R/V179D/P225H",[6]; listed as Cmpd. III,53.5 ± 12.8 fold
same,IC50,CYP2C19,10.2 µM
same,"IC50, CYP2C19",CYP2C19; human liver microsomes,not observed
same,EC50,"[7]; Human immunodeficiency virus 1, MT4, 96 h, read-out: mean EC50, wild-type BH10 virus in MT-4 cells, p24 ELISA, 4 day",1.2 nM
same,EC50,"[7]; Human immunodeficiency virus 1, MT4, read-out: Average EC50 Values ± Standard Deviation, host MT-4, virus BH10, Table 17",1.2 ± 0.6 nM
same,"Fold Change, W.T.","[7]; Table 7, EC50 mutant / EC50 wild-type",1 fold
same,EC50,"[7]; read-out: mean EC50, wild-type BH10 virus in MT-4 cells, p24 ELISA, 4 day",~1 nM and 1 nM
same,EC50,[8],0.9 ± 0.4 nM
same,CC50 at 3 days,[9],66.9 µM
same,CC50 at 4 days,[10],24.6 ± 1.9 µM
same,IC50,"[11]; Table 3, range over W.T. and 7 mutant enzymes",130 to 2990 nM
same,Mean Activity Range (fold-resistance),"[11]; Table 4, range of fold changes over the panel",0.6 to 13.7 µM
same,"Percentage Plasma Protein Binding, Rats",[12],99.4%
same,fraction unbound,"[12]; rat, rat plasma, read-out: Percentage Plasma Protein Binding, Rats",< 0.01
same,EC50,"HIV-1 W.T. (NL4-3) virus; read-out: Average EC50 Values ± Standard Deviation, W.T. (NL4-3)",1.5 ± 0.5 nM
same,EC50,"HIV-1 W.T. (NL4-3) virus; read-out: mean EC50, NL4-3 strain in human PBMC",1.5 nM
